# In ChEMBL document CHEMBL3885881, “DrugMatrix”:
# Organism: Rattus norvegicus
# Assay: DrugMatrix - Regimen: Daily Repeat
# Format: toxicity, organism-based, Sprague-Dawley
# Set-up: regimen Daily Repeat, gender Male, age 6-8 weeks
# Conditions: in vivo, po, route oral GAVAGE, vehicle 100 % WATER; for ABSOLUTE BASOPHIL / ABSOLUTE EOSINOPHIL / ABSOLUTE LYMPHOCYTE / ABSOLUTE MONOCYTE / ABSOLUTE SEGMENTED NEUTROPHIL / BASOPHIL / EOSINOPHIL / ERYTHROCYTE COUNT / HEMATOCRIT / HEMOGLOBIN / LEUKOCYTE COUNT / LYMPHOCYTE / MEAN CORPUSCULAR HEMOGLOBIN / MEAN CORPUSCULAR HEMOGLOBIN CONCENTRATION / MEAN CORPUSCULAR VOLUME / MONOCYTE / NEUTROPHIL / NUCLEATED RED BLOOD CELLS / PLATELET COUNT: tissue Blood; for ALANINE AMINOTRANSFERASE / ALBUMIN / ALKALINE PHOSPHATASE / ASPARTATE AMINOTRANSFERASE / BLOOD UREA NITROGEN / CARBON DIOXIDE / CHLORIDE / CHOLESTEROL / CREATINE PHOSPHOKINASE / CREATININE / GLUCOSE / LACTATE DEHYDROGENASE / LIPASE / PHOSPHORUS / POTASSIUM / SODIUM / TOTAL BILIRUBIN / TOTAL PROTEIN / URIC ACID: tissue Plasma
# [1] = 58 mg/kg, 120 h, dose level Low, time 5 day
# [2] = 1400 mg/kg, 72 h, dose level High, time 3 day
# [3] = 1400 mg/kg, 120 h, dose level High, time 5 day
structure (smiles),measurement,setting,value
Cc1cn([C@H]2C=C[C@@H](CO)O2)c(=O)[nH]c1=O [STAVUDINE],ABSOLUTE BASOPHIL,[1],0 CELLS/uL
same,ABSOLUTE EOSINOPHIL,[1],94.33 CELLS/uL
same,ABSOLUTE LYMPHOCYTE,[1],9260.33 CELLS/uL
same,ABSOLUTE MONOCYTE,[1],0 CELLS/uL
same,ABSOLUTE SEGMENTED NEUTROPHIL,[1],878.67 CELLS/uL
same,BASOPHIL,[1],0%
same,EOSINOPHIL,[1],1%
same,ERYTHROCYTE COUNT,[1],5.68 x10E6/uL
same,HEMATOCRIT,[1],35.3%
same,HEMOGLOBIN,[1],13.67 G/DL
same,LEUKOCYTE COUNT,[1],10.23 x10E3/uL
same,LYMPHOCYTE,[1],90%
same,MEAN CORPUSCULAR HEMOGLOBIN,[1],24.17 pg
same,MEAN CORPUSCULAR HEMOGLOBIN CONCENTRATION,[1],38.73 G/DL
same,MEAN CORPUSCULAR VOLUME,[1],62.33 fL
same,MONOCYTE,[1],0%
same,NEUTROPHIL,[1],9%
same,NUCLEATED RED BLOOD CELLS,[1],0.33 /100WBC
same,PLATELET COUNT,[1],999.33 x10E3/uL
same,ALANINE AMINOTRANSFERASE,[1],49 u/L
same,ALBUMIN,[1],4.1 G/DL
same,ALKALINE PHOSPHATASE,[1],425 u/L
same,ASPARTATE AMINOTRANSFERASE,[1],86.33 u/L
same,BLOOD UREA NITROGEN,[1],14.33 mg/dL
same,CARBON DIOXIDE,[1],28.33 mmol/L
same,CHLORIDE,[1],104 MEQ/L
same,CHOLESTEROL,[1],72.33 mg/dL
same,CREATINE PHOSPHOKINASE,[1],506.33 u/L
same,CREATININE,[1],0.15 mg/dL
same,GLUCOSE,[1],173.33 mg/dL
same,LACTATE DEHYDROGENASE,[1],155.33 u/L
same,LIPASE,[1],8.67 u/L
same,PHOSPHORUS,[1],11.87 mg/dL
same,POTASSIUM,[1],5.3 MEQ/L
same,SODIUM,[1],146.7 MEQ/L
same,TOTAL BILIRUBIN,[1],0.17 mg/dL
same,TOTAL PROTEIN,[1],6.03 G/DL
same,URIC ACID,[1],0.67 mg/dL
same,ABSOLUTE BASOPHIL,[2],0 CELLS/uL
same,ABSOLUTE EOSINOPHIL,[2],0 CELLS/uL
same,ABSOLUTE LYMPHOCYTE,[2],15246 CELLS/uL
same,ABSOLUTE MONOCYTE,[2],148.33 CELLS/uL
same,ABSOLUTE SEGMENTED NEUTROPHIL,[2],1072.33 CELLS/uL
same,BASOPHIL,[2],0%
same,EOSINOPHIL,[2],0%
same,ERYTHROCYTE COUNT,[2],5.98 x10E6/uL
same,HEMATOCRIT,[2],37.4%
same,HEMOGLOBIN,[2],14.87 G/DL
same,LEUKOCYTE COUNT,[2],16.47 x10E3/uL
same,LYMPHOCYTE,[2],92.67%
same,MEAN CORPUSCULAR HEMOGLOBIN,[2],24.9 pg
same,MEAN CORPUSCULAR HEMOGLOBIN CONCENTRATION,[2],39.77 G/DL
same,MEAN CORPUSCULAR VOLUME,[2],62.67 fL
same,MONOCYTE,[2],1%
same,NEUTROPHIL,[2],6.33%
same,NUCLEATED RED BLOOD CELLS,[2],0 /100WBC
same,PLATELET COUNT,[2],998.33 x10E3/uL
same,ALANINE AMINOTRANSFERASE,[2],113.67 u/L
same,ALBUMIN,[2],3.93 G/DL
same,ALKALINE PHOSPHATASE,[2],510.67 u/L
same,ASPARTATE AMINOTRANSFERASE,[2],191 u/L
same,BLOOD UREA NITROGEN,[2],12.33 mg/dL
same,CARBON DIOXIDE,[2],27 mmol/L
same,CHLORIDE,[2],100.67 MEQ/L
same,CHOLESTEROL,[2],97.33 mg/dL
same,CREATINE PHOSPHOKINASE,[2],237.67 u/L
same,CREATININE,[2],0.15 mg/dL
same,GLUCOSE,[2],155 mg/dL
same,LACTATE DEHYDROGENASE,[2],355 u/L
same,LIPASE,[2],11.33 u/L
same,PHOSPHORUS,[2],12.77 mg/dL
same,POTASSIUM,[2],6.93 MEQ/L
same,SODIUM,[2],142.73 MEQ/L
same,TOTAL BILIRUBIN,[2],0.23 mg/dL
same,TOTAL PROTEIN,[2],5.63 G/DL
same,URIC ACID,[2],1.47 mg/dL
same,ABSOLUTE BASOPHIL,[3],0 CELLS/uL
same,ABSOLUTE EOSINOPHIL,[3],247.33 CELLS/uL
same,ABSOLUTE LYMPHOCYTE,[3],16216.67 CELLS/uL
same,ABSOLUTE MONOCYTE,[3],311.33 CELLS/uL
same,ABSOLUTE SEGMENTED NEUTROPHIL,[3],2358 CELLS/uL
same,BASOPHIL,[3],0%
same,EOSINOPHIL,[3],1.33%
same,ERYTHROCYTE COUNT,[3],5.64 x10E6/uL
same,HEMATOCRIT,[3],35.57%
same,HEMOGLOBIN,[3],13.87 G/DL
same,LEUKOCYTE COUNT,[3],19.13 x10E3/uL
same,LYMPHOCYTE,[3],84.67%
same,MEAN CORPUSCULAR HEMOGLOBIN,[3],24.6 pg
same,MEAN CORPUSCULAR HEMOGLOBIN CONCENTRATION,[3],39 G/DL
same,MEAN CORPUSCULAR VOLUME,[3],63.1 fL
same,MONOCYTE,[3],1.67%
same,NEUTROPHIL,[3],12.33%
same,NUCLEATED RED BLOOD CELLS,[3],0 /100WBC
same,PLATELET COUNT,[3],1296.67 x10E3/uL
same,ALANINE AMINOTRANSFERASE,[3],50.33 u/L
same,ALBUMIN,[3],4.17 G/DL
same,ALKALINE PHOSPHATASE,[3],429.33 u/L
same,ASPARTATE AMINOTRANSFERASE,[3],75 u/L
same,BLOOD UREA NITROGEN,[3],14.67 mg/dL
same,CARBON DIOXIDE,[3],23 mmol/L
same,CHLORIDE,[3],102 MEQ/L
same,CHOLESTEROL,[3],81.67 mg/dL
same,CREATINE PHOSPHOKINASE,[3],207 u/L
same,CREATININE,[3],0.21 mg/dL
same,GLUCOSE,[3],162 mg/dL
same,LACTATE DEHYDROGENASE,[3],128.33 u/L
same,LIPASE,[3],11.67 u/L
same,PHOSPHORUS,[3],11 mg/dL
same,POTASSIUM,[3],5.59 MEQ/L
same,SODIUM,[3],145 MEQ/L
same,TOTAL BILIRUBIN,[3],0.2 mg/dL
same,TOTAL PROTEIN,[3],5.8 G/DL
same,URIC ACID,[3],1.77 mg/dL
